Data from patent US7635722B1, “Chemical induced intracellular hyperthermia” (priority 1998, dated 2009).

Experiments:
[1] = system: inner mitochondrial membrane; settings: lowered from −180; cited from earlier work
heat shock protein = assay: DNP induction of autologous heat shock proteins; type: in vivo, human; settings: after cessation of DNP
Method: DNP would be given orally at doses to increase the V02 from 1.5 to 5 times above normal per day for a period of 2-6 days or, as an infusion at doses that would increase V02 and core body temperatures no greater than 39° C. for periods of 5 to 6 hours or, intravenous doses of DNP alone, with vasopressors, or other short acting metabolic stimulators, that would increase V02 to equivalent core temperatures of 40-41° C. for periods of 15-30 minutes. Within 8-48 hours after cessation of DNP, the patient would have maximum heat shock protein production. Such DNP induced stress would improve clinical outcome by induction of cellular heat shock protein synthesis with protection of the patient's, organs, tissues and cells from subsequent ischemic surgical or traumatic procedures.

[2] = system: arterial catheter balloon injury; assay: arterial catheter balloon injury after DNP pretreatment; type: in vivo, Sprague-Dawley rats; settings: rats pretreated with DNP induced hyperthermia (FIG. 21)
Description: This method of DNP induced preconditioning could be used to decrease intimal thickening and restenosis after angioplasty, improve ischemia/reperfusion injury in organ and tissue transplantation, and improve surgical outcome of procedures that require temporary or prolonged occlusion of arterial blood flow.

Borrelia burgdorferi = assay: DNP hyperthermia, Lyme disease (Example 3); type: in vivo, human
Method: Pretreatment protocol: the evening prior treatment the patient was instructed not to eat and dress in cotton undergarments. Approximately 4 hours prior to treatment 2 mg alprazolam was administered by mouth. The patient dressed themself into a dry cold water immersion suit (Stearns, previously described) with headgear. Monitoring sensors, including EKG display, IV fluids and Foley catheter were attached and the suit was zipped closed. The patient opted for oxygen supplementation. The modified face mask was connected to the TEEM 100 metabolic Analysis System for V02 measurements. Data was recorded as previously described.
The patient was infused with 1 mg/kg DNP over a 2 minute period. V02 increased and stabilized at 250 cc/min, 5.3 cc/kg/min. A second dose of 2.0 mg/kg was infused over a 2 minute period and the V02 peaked at 400 cc/min, 8.8 cc 02/kg/min. An additional dose of 1.0 mg/kg DNP was given 30 minutes after the second dose. The V02 increased and reached a stable plateau at 600 cc/min, […]. […] V02 increased back to 680-710 cc/min. […] The patient periodically requested the V02 monitoring mask be removed during the hyperthermia treatment period. They were accommodated with removal of the mask on two occasions for periods not exceeding 10 minutes. […] The treatment was terminated 4 hours and 10 minutes after the initial dose of DNP. Twenty five minutes after the patient was removed from the neoprene survival suit, the rectal core temperature dropped to 38.5° C. Normothermia was achieved approximately 60 minutes after cessation of therapy and removal from the survival suit. Approximately 6.5 to 7 hours after treatment the patient experienced chills, an increase in oral temperature to 38.7 degrees centigrade and malaise. IV fluids and the dopamine drip at 2 mcg/kg/min were restarted and the patient was closely observed. Their symptoms subsided over 3 hours and by the next day they felt active and hungry. It was surmised they may have experienced a delayed Jarisch-Herxheimer reaction. The patients monitored treatment flow chart is FIG. 18.

[3] = system: metastatic, hormone-refractory prostate carcinoma; assay: DNP with methylene blue, prostate carcinoma (Example 9); type: in vivo, human
Method: Pretreatment protocol: the patient was transfused with 2 units of packed red blood cells 48 hours prior to undergoing treatment. Intravenous fluids (Lactated Ringer's solution) were administered at a rate of 100 cc/hour. The patient was dressed in comfortable cotton clothing and placed in an air-conditioned room. Equipment for monitoring heart rate and rhythm, temperature and oxygen consumption was utilized as outlined in Example 1. An oral breathing tube was used to conduct TEEM VO2 measurements. Oxygen supplementation and “crash cart” was available at bedside.
Treatment protocol: baseline VO2 measurements for 8 minutes established an average VO2 of 250 cc/minute. DNP, at a dose of 2 mg/kg, was infused intravenously over a 2 minute period. Repeat VO2 at 20 minutes was stabilized at 340-360 cc/minute. An additional 1 mg/kg DNP infusion was administered, and 15 minutes thereafter the VO2 increased and stabilized at 420 cc/minute. Ten minutes thereafter, an infusion of methylene blue, 2 mg/kg (dissolved in a […] pyrogen-free isotonic saline solution-35 ml) was administered over 20 minutes.
By hour 3, VO2 declined to the 360-380 cc/minute range. An additional 1 mg/kg dose of DNP was infused over a 2 minute period. […] Rectal probe temperature increased to a maximum of 1.3° C. over baseline. […] The protocol was repeated every other day for a total of 15 treatments (30 days). Therapy was discontinued for 2 weeks and the cycle was again repeated for an additional 30 days, treatment being administered every other day.

[4] = system: dimethyl benzo-dithionaphthene derived ascites fibrosarcoma; assay: DNP induced hyperthermia with thermosensitive liposomes, ascites fibrosarcoma (Example 5); type: in vivo, Swiss albino mice
Method: The anticancer drug dacarbazine [5-(3,3′-dimethyl-1-triazino) imidazole-4-carboxamide] was encapsulated in these heat-sensitive liposomes at a concentration of 3 mg/ml. The in vivo efficacy of the thermosensitive, liposome encapsulated dacarbazine was tested on Swiss albino mice transplanted with a dimethyl benzo-dithionaphthene derived ascites fibrosarcoma subjected to DNP induced hyperthermia.
Male, 10-12-week-old, Swiss albino mice were injected with 3×10^6 viable fibrosarcoma cells into the peritoneum. After 15 days the animals were divided into various treatment and control groups receiving intraperitoneal injections of free dacarbazine, DNP alone, DNP+empty liposomes and DNP+liposome encapsulated dacarbazine. DNP induced hyperthermia was recorded with neonatal rectal and 22 ga. hypodermic YSI probes. Temperatures were recorded 30 minutes after a 20 mg/kg intraperitoneal dose of DNP. DNP was administered every day for a total of 5 doses. In all cases the hypodermic, intraperitoneal temperatures were 1° C. higher than the rectal.

[5] = system: tumors and normal fibroblasts; settings: many tumors and normal fibroblasts treated with DNP; cited from earlier work

O=[N+]([O-])c1ccc(O)c([N+](=O)[O-])c1 [DNP, 2,4-dinitrophenol]
inner mitochondrial membrane potential [1]: −145 mV
time to maximum heat shock protein production (heat shock protein): 8 to 48 h
proliferative arterial catheter balloon injury [2]: limitation of proliferative arterial catheter balloon injury
repeat spinal fluid analysis, Borrelia DNA by PCR (Borrelia burgdorferi; after treatment): no detectable Borrelia DNA by PCR
spinal fluid culture on Barbour-Stoenner-Kelly II medium (Borrelia burgdorferi; three months later): negative
EKG (Borrelia burgdorferi; two months follow-up): resolution of their first degree A-V block
symptoms (Borrelia burgdorferi; two months follow-up): arthralgias, myalgias, malaise, fatigue and memory deficits have disappeared
bone pain ([3]; 6th day following therapy, DNP with methylene blue): decrease in their low back, hip and other areas of bone pain
PSA values ([3]; 6 weeks after treatment): 30 ng/mL
tumor necrotic on prostatic biopsy ([3]; 10 weeks after initiation of treatment): 95%
analgesic use ([3]; by 2 weeks): off all narcotic (morphine) analgesics
acid phosphatase ([3]; day 8): remained unchanged
increase in PSA level ([3]; day 8): approximately 120%
PSA level ([3]; day 8, pretreatment 58 ng/ml): 125 ng/mL
repeat prostate biopsy ([3]; end of month 4, oral DNP 250 mg twice a day after IV therapy): very few intact acini or viable acinar cells
weight gained ([3]; three months after initiation of therapy): 8.2 kg
hypodermic, intraperitoneal temperature higher than the rectal ([4]; 30 minutes after 20 mg/kg intraperitoneal DNP): 1 °C
survival curves in comparison to controls ([4]; FIG. 20, DNP 20 mg/kg ip every day, 5 doses): significantly improved
animals remained alive ([4]; sham treated animals all died by 60): ≥ 100 days
increase in heat production [5]: 83%
increase in oxygen consumption [5]: 36%
